Experimental data from patent publication US11882828B2, “Mosquito vector control compositions, methods and products utilizing same” (priority 2015, dated 2024).
Like-named read-outs stand apart in the source and are kept apart here.

How the values were obtained:
[1] = tested on: Aedes aegypti (Yellow fever mosquito); assay: whole plant or invertebrate; settings: Aedes aegypti; for pest or weed control at 20 ppm: 1 h, read-out: Knockdown; for mortality at 20 ppm: 48 h
Protocol: […] Once the deposits were dry, five non-blood fed adult female Aedes aegypti (between two to five days old) were added to each well, and sustained with a 10% sucrose solution in a cotton wool plug. Assessment of the knockdown after 1 hour, and mortality after 48 hours was carried out.
(§1) In case of multiple tests, the mean value is reported.

[2] = tested on: Aedes aegypti; assay: Example B7: evaluation of insecticide impregnated polymer surfaces; format: in vivo; settings: AI content 2 wt %; for knock-down: after one hour; for mortality: 24 hours after exposure
Source text: (§2) Preparation of polymeric sheets: Certain methoxyacrylate were Impregnated into three polymers: LDPE (low density polyethylene), HDPE (high density polyethylene) and PP (polypropylene) in different concentrations by mixing the respective polymer with a compound at high temperatures and the resultant polymeric material were then mould into thin discs or plaques.
(§3) Twenty four hours prior to the relevant assessment intervals, three to five day old non-blood fed adult mosquitoes were taken from the culture and lightly anaesthetised with carbon dioxide. Ten females were selected and placed in a 250 ml plastic cup, retained with a net lid, provided with a 10% sucrose solution soaked in a cotton wool bung and held under culturing environmental conditions.
(§4) After twenty four hours, impregnated polymer sheets (measuring about 150 mm in diameter and about 0.1 mm in thickness) were removed from storage and wrapped around the glazed side of an 11 cm ceramic tile and held in place with an elastic band. A cup of the pre-selected mosquitoes were again lightly anaesthetised with carbon dioxide and transferred from the holding cup to the base of a 9 cm plastic Petri dish. The relevant impregnated polymer sheet was placed over the Petri dish and held in place with an elastic band. Once the mosquitoes had recovered from the anaesthetic, ca. 1 minute, the impregnated polymer sheet was placed on a holding rack, such that treated side was at an angle of […] to the horizontal.
(§5) After one hour an assessment of mosquito knockdown was made. A mosquito was said to be knocked down if it was unable to right itself once it had fallen over. The mosquitoes were lightly anaesthetised again, and removed from the Petri dish exposure chamber and returned to the holding cups. The mosquitoes were supplied with a 10% sucrose solution soaked in a cotton wool bung and held under culturing environmental conditions. An assessment of mortality was made 24 hours after exposure. A mosquito was said to be dead if it is unable to right itself once it had fallen over.

[3] = tested on: Anopheles stephensi; assay: as above; format: in vivo; settings: AI content 2 wt %; for knock-down: after one hour; for mortality: 24 hours after exposure
Source text: as §2, §3, §4, §5

[4] = tested on: Anopheles stephensi (Indian malaria mosquito); assay: whole plant or invertebrate; settings: Anopheles stephensi; for pest or weed control at 20 ppm: 1 h, read-out: Knockdown; for mortality at 20 ppm: 48 h
Protocol: […] Once the deposits were dry, five non-blood fed adult female Anopheles stephensi (between two to five days old) were added to each well, and sustained with a 10% sucrose solution in a cotton wool plug. Assessment of the knockdown after 1 hour, and mortality after 48 hours was carried out.
as §1

[5] = tested on: Aedes aegypti; assay: whole plant or invertebrate; settings: Aedes aegypti, 48 h
Protocol: (§6) The individual wells of six (6) well tissue culture plates were treated with 250 μl of an ethanol solution containing a test compound at a defined concentration. Once the deposits were dry, ten non-blood fed adult female Aedes aegypti or Anopheles stephensi (each between two to five day old) were added to each well, and sustained with a 10% sucrose solution in a cotton wool plug.
(§7) Assessment of the mortality was carried out at 48 hours.
(§8) Each treatment was replicated twice, with the mean mortality recorded.

[6] = tested on: Anopheles stephensi; assay: whole plant or invertebrate; settings: Anopheles stephensi, 48 h
Protocol: as §6, §7, §8

[7] = tested on: FUMOZ; assay: Example B5: bottle based cross resistance study (CDC bottle assay); format: in vivo; settings: Anopheles funestus, 24 h
Protocol: (§9) Based on the “CDC bottle assay” (described at http://www.cdc.gov/malaria/resources/pdf/fsp/ir_manual/ir_cdc_bioassay_en.pdf) 1 ml of ethanol containing a test compound at a defined concentration was added to a 250 ml glass bottle and the bottles were placed on a rolling table to coat the inner surfaces as the solvent evaporated. Once dry, twenty five non-blood fed adult female mosquitoes of the appropriate species and strains (each three day old) were aspirated from the stock culture and gently blown into the exposure bottles. The lid of the bottle was replaced and the bottle placed upright out of direct sun light under standard culture conditions, nominally 28C and 60-80% relative humidity.
(§10) A stopwatch was started, and the assessment of the knock-down were made after 15 minutes and 60 minutes. A mosquito was said to be knocked down if it was unable to stand, following the CDC definition. The bottles were replaced in an upright position when not being assessed.
(§11) After one hour the mosquitoes were carefully removed from the bottle with an aspirator and placed in a recovery cup. The mosquitoes were supplied with a 10% sucrose solution on a cotton wool bung, and stored under culture conditions. Assessments of the mortality were made after 24 hours.
(§12) Each treatment was replicated a minimum of four times, with the mean knockdown or mortality recorded. In each study, a set of bottles was infested with a known insecticide susceptible strain of mosquitoes from the same genera as the resistant strains.

[8] = tested on: VK7; assay: as above; format: in vivo; settings: Anopheles coluzzii, Table B5b, after 24 hours
Protocol: as §9, §10, §11, §12

[9] = tested on: An. Gambiae Kisumu sus; assay: as above; format: in vivo; settings: Anopheles gambiae, 24 h
Protocol: as §9, §10, §11, §12

[10] = HDPE, polymer 8 to 12 weeks old
[11] = LDPE, polymer 8 to 12 weeks old
[12] = Table B5b, 25 ppm, after 24 hours, FUMOZ
[13] = Table B5b, 25 ppm, after 24 hours, Kisumu sus

SMILES: CO/C=C(/C(=O)OC)c1ccccc1Oc1ncnc(C(C)(C)C)n1 [Compound 5, Methyl (E)-2-[2-[(4-tert-butyl-1,3,5-triazin-2-yl)oxy]phenyl]-3-methoxy-prop-2-enoate]
- pest or weed control at 20 ppm [1]: 100%
- mortality at 20 ppm [1]: 100%
- knock-down ([2]; HDPE, polymer 2 to 4 weeks old): 33%
- knock-down ([2]; HDPE, polymer 6 to 8 weeks old): 60%
- knock-down ([2]; LDPE, polymer 2 to 4 weeks old): 13%
- knock-down ([2]; LDPE, polymer 6 to 8 weeks old): 85%
- knock-down ([2]; PP, polymer 2 to 4 weeks old): 80%
- knock-down ([2]; PP, polymer 6 to 8 weeks old): 70%
- knock-down ([3]; HDPE, polymer 2 to 4 weeks old): 100%
- knock-down [3, 10]: 50%
- knock-down ([3]; LDPE, polymer 2 to 4 weeks old): 80%
- knock-down [3, 11]: 70%
- knock-down ([3]; PP, polymer 2 to 4 weeks old): 90%
- knock-down ([3]; PP, polymer 8 to 12 weeks old): 20%
- pest or weed control at 20 ppm [4]: 100%
- mortality at 20 ppm [4]: 100%
- mortality at 5 ppm [5]: 85%
- mortality at 5 ppm [6]: 100%

SMILES: CO/C=C(/C(=O)OC)c1ccccc1Oc1cc(C(F)(F)F)ccn1 [Compound 8, Methyl (E)-2-[2-[[4-(trifluoromethyl)-2-pyridyl]oxy]phenyl]-3-methoxy-prop-2-enoate]
- pest or weed control at 20 ppm [1]: 67%
- mortality at 20 ppm [1]: 100%
- mortality ([2]; HDPE, polymer 2 to 4 weeks old): 53%
- knock-down ([2]; HDPE, polymer 2 to 4 weeks old): 100%
- mortality ([2]; HDPE, polymer 6 to 8 weeks old): 75%
- knock-down ([2]; HDPE, polymer 6 to 8 weeks old): 100%
- mortality ([2]; LDPE, polymer 2 to 4 weeks old): 100%
- knock-down ([2]; LDPE, polymer 2 to 4 weeks old): 100%
- mortality ([2]; LDPE, polymer 6 to 8 weeks old): 100%
- knock-down ([2]; LDPE, polymer 6 to 8 weeks old): 100%
- mortality ([3]; HDPE, polymer 2 to 4 weeks old): 100%
- knock-down ([3]; HDPE, polymer 2 to 4 weeks old): 100%
- mortality [3, 10]: 80%
- knock-down [3, 10]: 100%
- mortality ([3]; LDPE, polymer 2 to 4 weeks old): 100%
- knock-down ([3]; LDPE, polymer 2 to 4 weeks old): 100%
- mortality [3, 11]: 100%
- knock-down [3, 11]: 90%
- pest or weed control at 20 ppm [4]: 100%
- mortality at 20 ppm [4]: 100%
- mortality at 25 ppm [7, 12]: 56%
- mortality at 25 ppm ([8]; 24 h): 20%
- mortality at 25 ppm [9, 13]: 61%
- mortality at 5 ppm [5]: 100%
- mortality at 5 ppm [6]: 100%

SMILES: CO/C=C(/C(=O)OC)c1ccccc1CO/N=C(\C)C(C)C [Compound 12]
- pest or weed control at 20 ppm [1]: 100%
- mortality at 20 ppm [1]: 100%
- knock-down ([2]; HDPE, polymer 2 to 4 weeks old): 97%
- knock-down ([2]; HDPE, polymer 6 to 8 weeks old): 100%
- knock-down ([2]; LDPE, polymer 2 to 4 weeks old): 100%
- knock-down ([2]; LDPE, polymer 6 to 8 weeks old): 95%
- knock-down ([2]; PP, polymer 2 to 4 weeks old): 100%
- knock-down ([2]; PP, polymer 6 to 8 weeks old): 100%
- knock-down ([3]; HDPE, polymer 2 to 4 weeks old): 100%
- knock-down [3, 10]: 100%
- knock-down ([3]; LDPE, polymer 2 to 4 weeks old): 100%
- knock-down [3, 11]: 30%
- knock-down ([3]; PP, polymer 2 to 4 weeks old): 100%
- knock-down ([3]; PP, polymer 8 to 12 weeks old): 100%
- pest or weed control at 20 ppm [4]: 100%
- mortality at 20 ppm [4]: 100%
- mortality at 5 ppm [5]: 43%
- mortality at 5 ppm [6]: 100%

SMILES: CO/C=C(/C(=O)OC)c1ccccc1Oc1ncc(C(F)(F)F)s1 [Compound 13, Methyl (E)-3-methoxy-2-[2-[5-(trifluoromethyl)thiazol-2-yl]oxyphenyl]prop-2-enoate]
- pest or weed control at 20 ppm [1]: 100%
- mortality at 20 ppm [1]: 100%
- mortality ([2]; HDPE, polymer 2 to 4 weeks old): 73%
- knock-down ([2]; HDPE, polymer 2 to 4 weeks old): 100%
- mortality ([2]; HDPE, polymer 6 to 8 weeks old): 65%
- knock-down ([2]; HDPE, polymer 6 to 8 weeks old): 100%
- mortality ([2]; LDPE, polymer 2 to 4 weeks old): 93%
- knock-down ([2]; LDPE, polymer 2 to 4 weeks old): 100%
- mortality ([2]; LDPE, polymer 6 to 8 weeks old): 95%
- knock-down ([2]; LDPE, polymer 6 to 8 weeks old): 100%
- mortality ([2]; PP, polymer 2 to 4 weeks old): 87%
- knock-down ([2]; PP, polymer 2 to 4 weeks old): 100%
- mortality ([2]; PP, polymer 6 to 8 weeks old): 35%
- knock-down ([2]; PP, polymer 6 to 8 weeks old): 100%
- mortality ([3]; HDPE, polymer 2 to 4 weeks old): 100%
- knock-down ([3]; HDPE, polymer 2 to 4 weeks old): 100%
- mortality [3, 10]: 0%
- knock-down [3, 10]: 90%
- mortality ([3]; LDPE, polymer 2 to 4 weeks old): 100%
- knock-down ([3]; LDPE, polymer 2 to 4 weeks old): 100%
- mortality [3, 11]: 80%
- knock-down [3, 11]: 100%
- mortality ([3]; PP, polymer 2 to 4 weeks old): 100%
- knock-down ([3]; PP, polymer 2 to 4 weeks old): 100%
- mortality ([3]; PP, polymer 8 to 12 weeks old): 10%
- knock-down ([3]; PP, polymer 8 to 12 weeks old): 100%
- pest or weed control at 20 ppm [4]: 100%
- mortality at 20 ppm [4]: 100%
- mortality at 25 ppm [7, 12]: 70%
- mortality at 25 ppm ([8]; 24 h): 61%
- mortality at 25 ppm [9, 13]: 94%
- mortality at 5 ppm [5]: 78%
- mortality at 5 ppm [6]: 100%

SMILES: CO/C=C(/C(=O)OC)c1ccccc1Oc1cc(C(F)(F)C(F)(F)F)ncn1 [Compound 17]
- pest or weed control at 20 ppm [1]: 100%
- mortality at 20 ppm [1]: 100%
- knock-down ([2]; LDPE, polymer 4 to 6 weeks old): 100%
- pest or weed control at 20 ppm [4]: 100%
- mortality at 20 ppm [4]: 100%
- mortality at 5 ppm [5]: 5%
- mortality at 5 ppm [6]: 55%

SMILES: CO/C=C(/C(=O)OC)c1ccccc1CO/N=C(\C)OC [Compound 22]
- pest or weed control at 20 ppm [1]: 100%
- mortality at 20 ppm [1]: 100%
- knock-down ([2]; HDPE, polymer 2 to 4 weeks old): 93%
- knock-down ([2]; HDPE, polymer 6 to 8 weeks old): 95%
- knock-down ([2]; LDPE, polymer 2 to 4 weeks old): 100%
- knock-down ([2]; LDPE, polymer 6 to 8 weeks old): 100%
- knock-down ([2]; PP, polymer 2 to 4 weeks old): 100%
- knock-down ([2]; PP, polymer 6 to 8 weeks old): 100%
- knock-down ([3]; HDPE, polymer 2 to 4 weeks old): 100%
- knock-down [3, 10]: 90%
- knock-down ([3]; LDPE, polymer 2 to 4 weeks old): 100%
- knock-down [3, 11]: 80%
- knock-down ([3]; PP, polymer 2 to 4 weeks old): 100%
- knock-down ([3]; PP, polymer 8 to 12 weeks old): 100%
- pest or weed control at 20 ppm [4]: 100%
- mortality at 20 ppm [4]: 100%
- mortality at 25 ppm [7]: 68%
- mortality at 25 ppm ([8]; read-out: Mortality): 96%
- mortality at 25 ppm [9]: 100%
- mortality at 5 ppm [5]: 100%
- mortality at 5 ppm [6]: 100%
